Assays:
Type in all cases: in vivo
[1] = test system: Spodoptera littoralis (Egyptian Cotton Leafworm); test: Spodoptera littoralis cotton leaf disc spray test; settings: same protocol, 200 ppm, 3 DAT
Protocol: (§1) This Example illustrates the pesticidal/insecticidal properties of compounds of formula (I). The tests were performed as follows:
Spodoptera littoralis (Egyptian Cotton Leafworm)
(§2) Cotton leaf discs were placed on agar in a 24-well microtiter plate and sprayed with test solutions at an application rate of 200 ppm. After drying, the leaf discs were infested with 5 L1 larvae. The samples were checked for mortality, feeding behavior, and growth regulation 3 days after treatment (DAT). The following compounds gave at least 80% control of Spodoptera littoralis: A2, A6, A8, A9, A10, A11, A13, A15, A19, A20, A22, A25, A27, A29, A31, A33, A35, A41, A50, A55, A60, A65, A73, A88, A92, and A94. Heliothis virescens (Tobacco Budworm): Eggs (0-24 h old) were placed in 24-well microtiter plate on artificial diet and treated with test solutions at an application rate of 200 ppm (concentration in well 18 ppm) by pipetting. After an incubation period of 4 days, samples were checked for egg mortality, larval mortality and growth regulation. The following compounds gave at least 80% control of Heliothis virescens: A2, A3, A4, A5, A6, A7, A9, A10, A11, A13, A15, A19, A20, A22, A25, A26, A27, A28, A29, A31, A32, A33, A35, A38, A40, A41, A43, A46, A55, A59, A60, A65, A69, A70, A71, A73, A74, A75, A77, A79, A80, A82, A86, A88, A89, A90, A92, A94, A96, A98, and A100. Plutella xylostella (Diamond Back Moth): A 24-well microtiter plate (MTP) with artificial diet was treated with test solutions at an application rate of 200 ppm (concentration in well 18 ppm) by pipetting. After drying, the MTP's were infested with L2 larvae (7-12 per well). After an incubation period of 6 days, samples were checked for larval mortality and growth regulation. The following compounds gave at least 80% control of Plutella xylostella: A3, A4, A5, A6, A7, A8, A10, A15, A16, A18, A19, A20, A22, A25, A26, A27, A28, A29, A31, A32, A33, A35, A38, A40, A55, A69, A71, A73, A74, A75, A76, A77, A78, A80, A82, A86, A87, A88, A89, A92, A94, A96, A97, A98, and A99. Diabrotica balteata (Corn Root Worm): A 24-well microtiter plate (MTP) with artificial diet was treated with test solutions at an application rate of 200 ppm (concentration in well 18 ppm) by pipetting. After drying, the MTP's were infested with larvae (L2) (6-10 per well). After an incubation period of 5 days, samples were checked for larval mortality, and growth regulation. The following compounds gave at least 80% control of Diabrotica balteata: A5, A6, A7, A14, A15, A18, A24, A35, A53, A55, A70, A71, A75, A79, A84, A85, A88, A92, A93, A95, A96, A97, A98, A99, A100, A101, A102, A103, and A104. Myzus persicae (Green Peach Aphid): Each well of a 24-well microtiter plate is filled with 0.6 ml 30% sucrose solution, containing 12.5 ppm of the test compounds. The wells are covered with streched parafilm and infested with a mixed population of Myzus persicae. After an incubation period of 6 days, samples are checked for mortality (feeding activity). The following compounds gave at least 80% control of Myzus persicae: A4, A6, A10, A11, A15, A19, A20, A24, A27, A29, A33, A34, A36, A37, A39, A40, A41, A42, A43, A44, A45, A46, A47, A48, A49, A55, A60, and A82. Tetranychus urticae (Two-Spotted Spider Mite): Bean leaf discs on agar in 24-well microtiter plates were sprayed with test solutions at an application rate of 200 ppm. After drying, the leaf discs are infested with mite populations of mixed ages. 8 days later, discs are checked for egg mortality, larval mortality, and adult mortality. The following compounds gave at least 80% control of Tetranychus urticae: A6, A11, A15, A19, A20, A22, A26, A35, A58, and A64.

[2] = test system: Heliothis virescens (Tobacco Budworm); test: Heliothis virescens egg test on artificial diet; settings: same protocol, 200 ppm (18 ppm in well), 4 days
Protocol: as §1, §2

[3] = test system: Plutella xylostella (Diamond Back Moth); test: Plutella xylostella larvae test on artificial diet; settings: same protocol, 200 ppm (18 ppm in well), 6 days
Protocol: as §1, §2

[4] = test system: Diabrotica balteata (Corn Root Worm); test: Diabrotica balteata larvae test on artificial diet; settings: same protocol, 200 ppm (18 ppm in well), 5 days
Protocol: as §1, §2

[5] = test system: Myzus persicae (Green Peach Aphid); test: Myzus persicae sucrose solution feeding test; settings: same protocol, 12.5 ppm, 6 days
Protocol: as §1, §2

[6] = test system: Tetranychus urticae (Two-Spotted Spider Mite); test: Tetranychus urticae bean leaf disc spray test; settings: same protocol, 200 ppm, 8 days
Protocol: as §1, §2

Measured: effect on mortality, feeding behavior, or growth regulation

CCc1cc(C(F)(C(F)(F)F)C(F)(F)C(F)(F)F)cc(C)c1NC(=O)c1ccc(C(=O)Nc2nc3c(C)cccc3s2)c(C)c1 (stereo not drawn) [A62]
no or little effect: all assays above

CCc1cc(C(F)(C(F)(F)F)C(F)(F)C(F)(F)F)cc(C)c1NC(=O)c1ccc(C(=O)Nc2nnc(C)s2)c(C)c1 (stereo not drawn) [A63]
no or little effect: all assays above

CCc1cc(C(F)(C(F)(F)F)C(F)(F)C(F)(F)F)cc(C)c1NC(=O)c1ccc(C(=O)Nc2nc(-c3ccc(C)cc3)cs2)c(C)c1 (stereo not drawn) [A66]
no or little effect: all assays above

CCc1cc(C(F)(C(F)(F)F)C(F)(F)C(F)(F)F)cc(C)c1NC(=O)c1ccc(C(=O)NCCCN2CCCCC2)c(C)c1 (stereo not drawn) [A67]
no or little effect: all assays above

CCc1cc(C(F)(C(F)(F)F)C(F)(F)C(F)(F)F)cc(C)c1NC(=O)c1ccc(C(=O)NCc2cc(-c3ccc(Cl)cc3)no2)c(C)c1 (stereo not drawn) [A68]
no or little effect: all assays above

CCc1cc(C(F)(C(F)(F)F)C(F)(F)C(F)(F)F)cc(C)c1NC(=O)c1ccc(C(=O)NC2CC(C)(C)N(C)C(C)(C)C2)c(C)c1 (stereo not drawn) [A72]
no or little effect: all assays above

CCc1cc(C(F)(C(F)(F)F)C(F)(F)C(F)(F)F)cc(C)c1NC(=O)c1ccc(C(=O)NCc2ccc(C(C)(C)C)cc2)c(C)c1 (stereo not drawn) [A81]
no or little effect: all assays above

CCc1cc(C(F)(C(F)(F)F)C(F)(F)C(F)(F)F)cc(C)c1NC(=O)c1ccc(C(=O)NCc2ccc(Br)cc2F)c(C)c1 (stereo not drawn) [A83]
no or little effect: all assays above

CCc1cc(C(F)(C(F)(F)F)C(F)(F)C(F)(F)F)cc(C)c1NC(=O)c1ccc(C(=O)NCc2ccc(C)c(C)c2)c(C)c1 (stereo not drawn) [A91]
no or little effect: all assays above

From patent publication US8658698B2, “Insecticidal compounds” (Syngenta Crop Protection, LLC, priority 2008, dated 2014)
